PubChem BioAssay (NCI)
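At the GI50, growth is halved. The concentration for full growth arrest is given as TGI.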

What was measured:
Assay in all cases: NCI anticancer screen, dose series, 384-well format
K-562 leukemia = test system: K-562 leukemia
SK-MEL-2 melanoma = test system: SK-MEL-2 melanoma
NCI-H226 lung = test system: NCI-H226 lung
786-0 renal = test system: 786-0 renal
NCI-H23 lung = test system: NCI-H23 lung
NCI-H322M lung = test system: NCI-H322M lung
EKVX NSCLC = test system: EKVX NSCLC
OVCAR-4 ovarian = test system: OVCAR-4 ovarian
MDA-MB-435 melanoma = test system: MDA-MB-435 melanoma
IGROV1 ovarian = test system: IGROV1 ovarian
HS 578T breast = test system: HS 578T breast
SK-OV-3 ovarian = test system: SK-OV-3 ovarian
TK-10 renal = test system: TK-10 renal
CCRF-CEM leukemia = test system: CCRF-CEM leukemia
MOLT-4 leukemia = test system: MOLT-4 leukemia
HOP-92 NSCLC = test system: HOP-92 NSCLC
MALME-3M melanoma = test system: MALME-3M melanoma
UO-31 renal = test system: UO-31 renal
UACC-62 melanoma = test system: UACC-62 melanoma
PC-3 prostate = test system: PC-3 prostate
HOP-62 NSCLC = test system: HOP-62 NSCLC
UACC-257 melanoma = test system: UACC-257 melanoma
DU-145 prostate = test system: DU-145 prostate
M14 melanoma = test system: M14 melanoma
ACHN renal = test system: ACHN renal
SN12C renal = test system: SN12C renal
RXF 393 renal = test system: RXF 393 renal
MDA-MB-231 breast = test system: MDA-MB-231 breast
SF-295 CNS = test system: SF-295 CNS
CAKI-1 renal = test system: CAKI-1 renal
SNB-19 CNS = test system: SNB-19 CNS
MCF7 breast = test system: MCF7 breast
OVCAR-5 ovarian = test system: OVCAR-5 ovarian
HT29 colon = test system: HT29 colon
A549 NSCLC = test system: A549 NSCLC
HCT-116 colon = test system: HCT-116 colon
T-47D breast = test system: T-47D breast
SNB-75 CNS = test system: SNB-75 CNS
HCT-15 colon = test system: HCT-15 colon
NCI-H522 lung = test system: NCI-H522 lung
SW-620 colon = test system: SW-620 colon
SF-268 CNS = test system: SF-268 CNS
SK-MEL-28 melanoma = test system: SK-MEL-28 melanoma
KM12 colon = test system: KM12 colon
NCI/ADR-RES ovarian = test system: NCI/ADR-RES ovarian
OVCAR-3 ovarian = test system: OVCAR-3 ovarian
RPMI-8226 leukemia = test system: RPMI-8226 leukemia
U251 glioblastoma = test system: U251 glioblastoma
SF-539 CNS = test system: SF-539 CNS
OVCAR-8 ovarian = test system: OVCAR-8 ovarian
HL-60(TB) leukemia = test system: HL-60(TB) leukemia
MDA-MB-468 breast = test system: MDA-MB-468 breast
BT-549 breast = test system: BT-549 breast
LOX IMVI melanoma = test system: LOX IMVI melanoma
A498 renal = test system: A498 renal

SMILES: OCC1OC(n2cnc3c2NC=NC[C@H]3O)CC1O (stereo not given in full)
- GI50 (K-562 leukemia): > 100 µM
- TGI (K-562 leukemia): > 100 µM
- GI50 (SK-MEL-2 melanoma): > 100 µM
- TGI (SK-MEL-2 melanoma): > 100 µM
- GI50 (NCI-H226 lung): > 100 µM
- TGI (NCI-H226 lung): > 100 µM
- GI50 ([…]-0 renal): > 100 µM
- TGI (786-0 renal): > 100 µM
- GI50 (NCI-H23 lung): > 100 µM
- TGI (NCI-H23 lung): > 100 µM
- GI50 (NCI-H322M lung): > 100 µM
- TGI (NCI-H322M lung): > 100 µM
- GI50 (EKVX NSCLC): > 100 µM
- TGI (EKVX NSCLC): > 100 µM
- GI50 (OVCAR-4 ovarian): > 100 µM
- TGI (OVCAR-4 ovarian): > 100 µM
- GI50 (MDA-MB-435 melanoma): > 100 µM
- TGI (MDA-MB-435 melanoma): > 100 µM
- GI50 (IGROV1 ovarian): > 100 µM
- TGI (IGROV1 ovarian): > 100 µM
- GI50 (HS 578T breast): > 100 µM
- TGI (HS 578T breast): > 100 µM
- GI50 (SK-OV-3 ovarian): > 100 µM
- TGI (SK-OV-3 ovarian): > 100 µM
- GI50 (TK-10 renal): > 100 µM
- TGI (TK-10 renal): > 100 µM
- GI50 (CCRF-CEM leukemia): > 100 µM
- TGI (CCRF-CEM leukemia): > 100 µM
- GI50 (MOLT-4 leukemia): > 100 µM
- TGI (MOLT-4 leukemia): > 100 µM
- GI50 (HOP-92 NSCLC): > 100 µM
- TGI (HOP-92 NSCLC): > 100 µM
- GI50 (MALME-3M melanoma): > 100 µM
- TGI (MALME-3M melanoma): > 100 µM
- GI50 (UO-31 renal): > 100 µM
- TGI (UO-31 renal): > 100 µM
- GI50 (UACC-62 melanoma): > 100 µM
- TGI (UACC-62 melanoma): > 100 µM
- GI50 (PC-3 prostate): > 100 µM
- TGI (PC-3 prostate): > 100 µM
- GI50 (HOP-62 NSCLC): > 100 µM
- TGI (HOP-62 NSCLC): > 100 µM
- GI50 (UACC-257 melanoma): > 100 µM
- TGI (UACC-257 melanoma): > 100 µM
- GI50 (DU-145 prostate): > 100 µM
- TGI (DU-145 prostate): > 100 µM
- GI50 (M14 melanoma): > 100 µM
- TGI (M14 melanoma): > 100 µM
- GI50 (ACHN renal): > 100 µM
- TGI (ACHN renal): > 100 µM
- GI50 (SN12C renal): > 100 µM
- TGI (SN12C renal): > 100 µM
- GI50 (RXF 393 renal): > 100 µM
- TGI (RXF 393 renal): > 100 µM
- GI50 (MDA-MB-231 breast): > 100 µM
- TGI (MDA-MB-231 breast): > 100 µM
- GI50 (SF-295 CNS): > 100 µM
- TGI (SF-295 CNS): > 100 µM
- GI50 (CAKI-1 renal): > 100 µM
- TGI (CAKI-1 renal): > 100 µM
- GI50 (SNB-19 CNS): > 100 µM
- TGI (SNB-19 CNS): > 100 µM
- GI50 (MCF7 breast): > 100 µM
- TGI (MCF7 breast): > 100 µM
- GI50 (OVCAR-5 ovarian): > 100 µM
- TGI (OVCAR-5 ovarian): > 100 µM
- GI50 (HT29 colon): > 100 µM
- TGI (HT29 colon): > 100 µM
- GI50 (A549 NSCLC): > 100 µM
- TGI (A549 NSCLC): > 100 µM
- GI50 (HCT-116 colon): > 100 µM
- TGI (HCT-116 colon): > 100 µM
- GI50 (T-47D breast): > 100 µM
- TGI (T-47D breast): > 100 µM
- GI50 (SNB-75 CNS): > 100 µM
- TGI (SNB-75 CNS): > 100 µM
- GI50 (HCT-15 colon): > 100 µM
- TGI (HCT-15 colon): > 100 µM
- GI50 (NCI-H522 lung): > 100 µM
- TGI (NCI-H522 lung): > 100 µM
- GI50 (SW-620 colon): > 100 µM
- TGI (SW-620 colon): > 100 µM
- GI50 (SF-268 CNS): > 100 µM
- TGI (SF-268 CNS): > 100 µM
- GI50 (SK-MEL-28 melanoma): > 100 µM
- TGI (SK-MEL-28 melanoma): > 100 µM
- GI50 (KM12 colon): > 100 µM
- TGI (KM12 colon): > 100 µM
- GI50 (NCI/ADR-RES ovarian): > 100 µM
- TGI (NCI/ADR-RES ovarian): > 100 µM
- GI50 (OVCAR-3 ovarian): > 100 µM
- TGI (OVCAR-3 ovarian): > 100 µM
- GI50 (RPMI-8226 leukemia): > 100 µM
- TGI (RPMI-8226 leukemia): > 100 µM
- GI50 (U251 glioblastoma): > 100 µM
- TGI (U251 glioblastoma): > 100 µM
- GI50 (SF-539 CNS): > 100 µM
- TGI (SF-539 CNS): > 100 µM
- GI50 (OVCAR-8 ovarian): > 100 µM
- TGI (OVCAR-8 ovarian): > 100 µM
- GI50 (HL-60(TB) leukemia): > 100 µM
- TGI (HL-60(TB) leukemia): > 100 µM
- GI50 (MDA-MB-468 breast): > 100 µM
- TGI (MDA-MB-468 breast): > 100 µM
- GI50 (BT-549 breast): > 100 µM
- TGI (BT-549 breast): > 100 µM
- GI50 (LOX IMVI melanoma): > 100 µM
- TGI (LOX IMVI melanoma): > 100 µM
- GI50 (A498 renal): > 100 µM
- TGI (A498 renal): > 100 µM
